The values below come from ChEMBL document CHEMBL6127064, “Discovery of GNE-6893, a Potent, Selective, Orally Bioavailable Small Molecule Inhibitor of HPK1” (ACS Med Chem Lett, 2024).

In brackets after ≈: the same amount, converted by molar mass.

Data set [1] can be described thus: Inhibition of human full length HPK1-T165E/S171E mutant expressed in baculovirus expression system assessed as inhibition of SLP76 phosphorylation using biotinylated SLP76 as substrate preincubated for 30 mins followed by incubation with substrate in presence of ATP and measured for 60 mins by HTRF assay. For orientation: In TR-FRET formats the signal depends on donor and acceptor labels being close together.

A short description of data set [2]: Volume of distribution at steady state in C57BL/6 mouse at 25 mg/kg, po or 1 mg/kg, iv measured for 24 hrs by LC-MS/MS analysis. In kind it is ADME, organism-based. As to conditions: in vivo.
Data set [3] is described as follows: Clearance in Sprague-Dawley rat at 0.5 mg/kg, iv measured for 8 hrs by LC-MS/MS analysis. As to conditions: in vivo. In kind it is ADME, organism-based.
A short description of data set [4]: Half life in C57BL/6 mouse at 25 mg/kg, po or 1 mg/kg, iv measured for 24 hrs by LC-MS/MS analysis. In kind it is ADME, organism-based. The settings on record: in vivo.
The nature of data set [5]: Oral bioavailability in Sprague-Dawley rat. Format: ADME, organism-based. As to conditions: in vivo.
Data set [6] can be described thus: Volume of distribution at steady state in Sprague-Dawley rat at 0.5 mg/kg, iv measured for 8 hrs by LC-MS/MS analysis. Format: ADME, organism-based. The settings on record: in vivo, read-out: Vdss.
The nature of data set [7]: Apparent permeability of the compound across apical to basolateral side in dog MDCK1 cells at 10 uM by LC-MS/MS analysis. In kind it is ADME, cell-based, Canis lupus familiaris. The settings on record: MDCK.
A short description of data set [8]: Kinetic solubility of the compound in PBS at pH 7.4. In kind it is physicochemical. As to conditions: read-out: Kinetic_solubility.
Data set [9] in a line: Half life in Sprague-Dawley rat at 0.5 mg/kg, iv measured for 8 hrs by LC-MS/MS analysis. In kind it is ADME, organism-based. As to conditions: in vivo.
For data set [10], the target named is T1, Mitogen-activated protein kinase kinase kinase kinase 1 (Homo sapiens, UniProt Q92918). As to the kind of experiment: Inhibition of HPK1 in primary human Pan T cells assessed as increase in IL-2 secretion pretreated for 30 mins followed by incubation with anti-CD3/anti-CD28 and measured after 4 hrs by MSD assay. Format: cell-based, T cell.
Target sequence in this assay (Q92918 whole entry): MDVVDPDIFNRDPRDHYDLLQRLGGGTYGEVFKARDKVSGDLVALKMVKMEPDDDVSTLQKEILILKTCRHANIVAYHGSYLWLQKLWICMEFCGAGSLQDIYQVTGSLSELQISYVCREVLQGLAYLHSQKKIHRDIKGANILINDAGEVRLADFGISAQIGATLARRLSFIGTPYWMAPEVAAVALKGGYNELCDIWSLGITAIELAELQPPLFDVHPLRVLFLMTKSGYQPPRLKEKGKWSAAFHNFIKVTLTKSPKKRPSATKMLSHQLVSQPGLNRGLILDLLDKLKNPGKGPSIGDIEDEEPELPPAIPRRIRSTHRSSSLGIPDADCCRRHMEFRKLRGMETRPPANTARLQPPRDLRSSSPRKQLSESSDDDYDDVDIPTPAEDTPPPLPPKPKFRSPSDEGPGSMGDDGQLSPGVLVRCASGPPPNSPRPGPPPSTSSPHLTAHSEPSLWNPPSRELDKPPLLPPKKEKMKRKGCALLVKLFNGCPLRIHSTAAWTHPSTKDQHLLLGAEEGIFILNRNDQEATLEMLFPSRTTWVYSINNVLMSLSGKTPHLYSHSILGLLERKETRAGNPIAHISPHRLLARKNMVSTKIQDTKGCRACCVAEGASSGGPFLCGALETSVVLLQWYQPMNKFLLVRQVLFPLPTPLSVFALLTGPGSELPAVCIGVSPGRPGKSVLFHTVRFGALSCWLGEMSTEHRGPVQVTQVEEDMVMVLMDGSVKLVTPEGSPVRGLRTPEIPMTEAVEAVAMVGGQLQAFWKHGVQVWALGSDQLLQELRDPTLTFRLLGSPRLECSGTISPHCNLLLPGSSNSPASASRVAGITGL
Data set [11] concerns the target T1, Mitogen-activated protein kinase kinase kinase kinase 1. In words: Inhibition of HPK1 in human Jurkat cells assessed as inhibition of anti-CD3/anti-CD28-induced SLP76 phosporylation at Ser376 residue incubated for 30 mins by ELISA. Format: cell-based. For orientation: ELISA stands for enzyme-linked immunosorbent assay.
Target sequence in this assay (Q92918 whole entry): as above
The nature of data set [12]: Oral bioavailability in C57BL/6 mouse at 25 mg/kg measured for 24 hrs by LC-MS/MS analysis. In kind it is ADME, organism-based. As to conditions: in vivo.
Data set [13] concerns the target T1, Mitogen-activated protein kinase kinase kinase kinase 1. As to the kind of experiment: Inhibition of HPK1 in primary human Pan T cells assessed as increase in IL-2 secretion pretreated for 30 mins followed by incubation with anti-CD3/anti-CD28 and measured after 4 hrs by MSD assay relative to control. Format: cell-based. As to conditions: T cell, time 4.5 hrs.
Target sequence in this assay (Q92918 whole entry, looked up): as the sequence (Q92918 whole entry) above

Turning to `Cc1ccncc1-c1cc2cc(Nc3cc4n(n3)CC(=O)N(C)CC4)ncc2c(N)c1F`, in data set [1], the Ki – broadly, the dissociation constant of the complex between target and ligand, obtained from inhibition or displacement – worked out at 0.16 nM.

Take `Cc1c(N)cncc1-c1cc2cc(NC(=O)OC3CCOCC3)ncc2c(N)c1F`: the Vdss in data set [2] turned out to be 1.7 L/kg. In addition, the Ki in data set [1] came out at 0.498 nM. For the same compound, in data set [3], the clearance – broadly, a measure of how efficiently the substance is removed, as volume per time – was found to be 38 mL/min/kg. Besides, the half-life (in general, how long it takes for the measured level to halve) in [4] is 1.3 h; in data set [9], 1.2 h. Also, the bioavailability (in general, dose-corrected exposure relative to a reference, in per cent) in data set [5] stood at 94%. Also, the Vd in [6] was determined as 3.2 L/kg. Further, in [7], the Papp A→B (usually how fast a substance crosses the layer from the apical side) at 10 µM was 15 ×10⁻⁶ cm/s. Besides, the solubility kinetic in [8] came to 13 µM (≈ 5.35 µg/mL).

Consider `Cc1c(N)cncc1-c1cc2cc(Nc3cc4n(n3)CC(=O)N(C)CC4)ncc2c(N)c1F`, for which the Vdss in [2] came out at 1.3 L/kg. In [3], this compound showed a clearance of 64 mL/min/kg. Moreover, in data set [10], the EC50 (usually the concentration giving half of the maximal effect) is 11 nM. Also, in data set [11], the IC50 (as a rule, the concentration at which inhibition is half-maximal) stood at 110 nM. Besides, the F result in [12] (mouse, po, 25 mg/kg, 24 h, BLD = below limit of detection) was “Bld”. Moreover, the half-life was 0.26 h in data set [4] and 0.57 h in [9]. In addition, the Vd in data set [6] came to 2.2 L/kg. Moreover, the Papp A→B at 10 µM in data set [7] was 0.4 ×10⁻⁶ cm/s.

As for `Cc1c(-c2cc3cc(NC(=O)OC4CCOCC4)ncc3c(N)c2F)cnc2c1NCCO2`, the Vdss in data set [2] turned out to be 1.3 L/kg. For the same compound, the Ki in data set [1] was below 0.019 nM. The compound further registered a clearance in data set [3] of 17 mL/min/kg. In addition, the EC50 in data set [10] was found to be 39 nM. In addition, in data set [11], the IC50 is 97 nM. The bioavailability in data set [12] (C57BL/6, mouse) worked out at 31%; in data set [5], 16%. The half-life was 1.1 h in data set [4] and 1.5 h in data set [9]. For the same compound, the Vd in [6] was 1.5 L/kg. The Papp A→B at 10 µM in data set [7] amounted to 18 ×10⁻⁶ cm/s. Moreover, in data set [8], the solubility kinetic worked out at 1.5 µM (≈ 0.68 µg/mL).

For `Cc1ccncc1-c1cc2cc(Nc3cnn([C@@H](C)C#N)c3)ncc2c(N)c1F`, the Ki in data set [1] turned out to be 32 nM.

For the compound `Cc1ccncc1-c1cc(N)c2cnc(NC(=O)[C@@H]3C[C@H]3C#N)cc2c1`, in data set [1], the inhibitory constant (Ki) was determined as 4.9 nM. Also, the fold change (FC) in data set [13] is 5.
